Results reported in article PMC2680423 (Cell calcium, 2009).
Like-named read-outs stand apart in the source and are kept apart here. Blank lines part the entries; values can stand above or below the compound they belong to.

Legend:
[1] = target: T1, Drosophila TRPL channel (Drosophila melanogaster, UniProt P48994); assay: Whole cell patch clamp of TRPL channels expressed in S2 cells; type: cell-based; settings: for TRPL Activation/Inhibition: Table 1, TRPL expressed in S2 cells; for Reversibility of effect on TRPL channel: washout, S2 cells
T1 sequence (P48994 1-1124): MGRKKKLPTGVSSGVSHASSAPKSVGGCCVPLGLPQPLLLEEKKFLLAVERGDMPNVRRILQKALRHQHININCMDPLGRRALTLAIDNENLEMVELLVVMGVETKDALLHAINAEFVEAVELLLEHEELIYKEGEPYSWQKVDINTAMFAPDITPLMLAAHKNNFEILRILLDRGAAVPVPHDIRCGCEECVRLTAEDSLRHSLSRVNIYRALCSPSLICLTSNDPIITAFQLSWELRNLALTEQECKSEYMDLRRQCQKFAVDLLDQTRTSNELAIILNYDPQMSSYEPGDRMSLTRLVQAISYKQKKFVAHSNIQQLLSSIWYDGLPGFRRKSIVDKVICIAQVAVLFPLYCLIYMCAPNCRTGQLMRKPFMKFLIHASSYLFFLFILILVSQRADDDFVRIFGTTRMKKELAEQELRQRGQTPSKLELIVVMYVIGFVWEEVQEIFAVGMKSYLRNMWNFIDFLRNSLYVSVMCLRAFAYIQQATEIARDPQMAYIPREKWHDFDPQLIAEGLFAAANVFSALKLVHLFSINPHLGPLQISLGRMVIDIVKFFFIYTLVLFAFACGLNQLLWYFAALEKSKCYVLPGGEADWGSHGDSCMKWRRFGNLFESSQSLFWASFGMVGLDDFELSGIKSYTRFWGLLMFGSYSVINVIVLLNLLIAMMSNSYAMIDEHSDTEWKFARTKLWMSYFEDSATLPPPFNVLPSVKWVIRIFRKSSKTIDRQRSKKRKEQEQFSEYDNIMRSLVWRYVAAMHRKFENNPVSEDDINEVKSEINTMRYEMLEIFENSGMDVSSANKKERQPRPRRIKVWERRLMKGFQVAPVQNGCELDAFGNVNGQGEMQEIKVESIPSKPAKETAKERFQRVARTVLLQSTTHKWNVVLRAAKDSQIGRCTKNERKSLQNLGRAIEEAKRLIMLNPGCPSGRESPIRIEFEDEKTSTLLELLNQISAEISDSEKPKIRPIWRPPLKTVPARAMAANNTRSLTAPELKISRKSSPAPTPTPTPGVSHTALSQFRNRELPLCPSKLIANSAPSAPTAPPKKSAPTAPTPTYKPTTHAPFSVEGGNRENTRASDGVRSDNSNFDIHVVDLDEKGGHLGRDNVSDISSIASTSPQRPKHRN

[2] = target: T1, Drosophila TRPL channel; settings: Table 1; no own experiment shown; cited from earlier work
[3] = system: TRPM8; settings: cited from earlier work
[4] = system: control hippocampal neurons; assay: Synaptic vesicle release; type: cell-based; settings: 500μM
[5] = target: T2, native TRPL channel (Drosophila melanogaster, UniProt P48994); assay: Light induced current
T2 sequence (P48994 1-1124): T1 sequence (P48994 1-1124)

[6] = target: TRPM7-GFP expressed in hippocampal neurons (Mus musculus, UniProt Q923J1); assay: Synaptic vesicle release; type: cell-based; settings: 500μM
Chain of TRPM7-GFP expressed in hippocampal neurons (Q923J1 whole entry): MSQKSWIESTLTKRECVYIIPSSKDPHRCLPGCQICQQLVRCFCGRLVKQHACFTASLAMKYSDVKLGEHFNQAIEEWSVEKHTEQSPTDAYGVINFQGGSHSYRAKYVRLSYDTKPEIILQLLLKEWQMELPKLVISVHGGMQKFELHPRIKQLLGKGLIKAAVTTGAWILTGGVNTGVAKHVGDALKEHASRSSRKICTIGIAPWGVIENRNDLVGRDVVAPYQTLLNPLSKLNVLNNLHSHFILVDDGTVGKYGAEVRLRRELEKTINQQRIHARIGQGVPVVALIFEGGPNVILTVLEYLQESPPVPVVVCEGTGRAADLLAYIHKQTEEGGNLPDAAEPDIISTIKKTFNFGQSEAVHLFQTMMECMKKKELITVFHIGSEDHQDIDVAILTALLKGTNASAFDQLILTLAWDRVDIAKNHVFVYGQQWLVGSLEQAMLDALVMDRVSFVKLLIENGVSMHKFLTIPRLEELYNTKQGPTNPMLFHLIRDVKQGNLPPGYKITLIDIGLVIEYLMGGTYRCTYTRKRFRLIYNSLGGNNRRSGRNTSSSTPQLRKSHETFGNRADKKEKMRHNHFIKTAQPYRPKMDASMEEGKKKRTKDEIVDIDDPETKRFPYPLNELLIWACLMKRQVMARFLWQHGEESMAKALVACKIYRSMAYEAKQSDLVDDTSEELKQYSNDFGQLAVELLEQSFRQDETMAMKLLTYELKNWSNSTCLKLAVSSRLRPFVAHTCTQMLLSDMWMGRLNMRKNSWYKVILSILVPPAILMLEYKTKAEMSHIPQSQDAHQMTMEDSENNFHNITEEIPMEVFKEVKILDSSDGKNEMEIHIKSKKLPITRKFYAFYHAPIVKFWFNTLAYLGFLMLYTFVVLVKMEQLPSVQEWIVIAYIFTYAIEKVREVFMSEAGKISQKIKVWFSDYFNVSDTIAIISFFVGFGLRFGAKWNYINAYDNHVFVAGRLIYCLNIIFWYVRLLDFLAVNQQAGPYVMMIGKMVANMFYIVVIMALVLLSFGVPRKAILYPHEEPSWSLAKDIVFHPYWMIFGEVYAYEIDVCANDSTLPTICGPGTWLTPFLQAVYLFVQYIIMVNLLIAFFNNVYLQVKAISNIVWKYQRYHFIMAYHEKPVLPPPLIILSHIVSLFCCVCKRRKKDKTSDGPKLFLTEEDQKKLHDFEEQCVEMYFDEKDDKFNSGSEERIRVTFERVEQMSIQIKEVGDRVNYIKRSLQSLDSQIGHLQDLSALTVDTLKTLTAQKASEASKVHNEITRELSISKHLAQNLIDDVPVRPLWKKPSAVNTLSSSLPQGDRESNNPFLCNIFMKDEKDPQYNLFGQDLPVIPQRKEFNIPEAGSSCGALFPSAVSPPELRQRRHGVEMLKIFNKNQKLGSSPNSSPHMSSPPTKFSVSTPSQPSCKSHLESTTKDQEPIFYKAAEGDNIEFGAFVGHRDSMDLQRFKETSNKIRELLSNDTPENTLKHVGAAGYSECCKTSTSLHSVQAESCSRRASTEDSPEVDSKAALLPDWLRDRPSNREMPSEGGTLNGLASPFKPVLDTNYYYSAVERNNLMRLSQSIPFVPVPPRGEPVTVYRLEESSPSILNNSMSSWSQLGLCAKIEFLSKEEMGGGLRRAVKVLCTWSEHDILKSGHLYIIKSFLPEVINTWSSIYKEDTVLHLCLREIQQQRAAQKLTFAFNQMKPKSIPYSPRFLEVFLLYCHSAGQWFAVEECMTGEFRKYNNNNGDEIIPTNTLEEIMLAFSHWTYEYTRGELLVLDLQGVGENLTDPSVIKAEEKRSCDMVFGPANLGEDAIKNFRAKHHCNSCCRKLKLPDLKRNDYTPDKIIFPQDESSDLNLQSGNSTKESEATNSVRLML

[7] = system: mock transfected HEK293 cells; assay: Control: mock transfected HEK293 cells, whole cell patch clamp; type: cell-based, Human; settings: TRPM7 not expressed
[8] = target: T3, native TRP channel (Drosophila melanogaster, UniProt P19334); assay: Light induced current; settings: WT photoreceptors, 6 min in the dark after application
T3 sequence (P19334 1-1275): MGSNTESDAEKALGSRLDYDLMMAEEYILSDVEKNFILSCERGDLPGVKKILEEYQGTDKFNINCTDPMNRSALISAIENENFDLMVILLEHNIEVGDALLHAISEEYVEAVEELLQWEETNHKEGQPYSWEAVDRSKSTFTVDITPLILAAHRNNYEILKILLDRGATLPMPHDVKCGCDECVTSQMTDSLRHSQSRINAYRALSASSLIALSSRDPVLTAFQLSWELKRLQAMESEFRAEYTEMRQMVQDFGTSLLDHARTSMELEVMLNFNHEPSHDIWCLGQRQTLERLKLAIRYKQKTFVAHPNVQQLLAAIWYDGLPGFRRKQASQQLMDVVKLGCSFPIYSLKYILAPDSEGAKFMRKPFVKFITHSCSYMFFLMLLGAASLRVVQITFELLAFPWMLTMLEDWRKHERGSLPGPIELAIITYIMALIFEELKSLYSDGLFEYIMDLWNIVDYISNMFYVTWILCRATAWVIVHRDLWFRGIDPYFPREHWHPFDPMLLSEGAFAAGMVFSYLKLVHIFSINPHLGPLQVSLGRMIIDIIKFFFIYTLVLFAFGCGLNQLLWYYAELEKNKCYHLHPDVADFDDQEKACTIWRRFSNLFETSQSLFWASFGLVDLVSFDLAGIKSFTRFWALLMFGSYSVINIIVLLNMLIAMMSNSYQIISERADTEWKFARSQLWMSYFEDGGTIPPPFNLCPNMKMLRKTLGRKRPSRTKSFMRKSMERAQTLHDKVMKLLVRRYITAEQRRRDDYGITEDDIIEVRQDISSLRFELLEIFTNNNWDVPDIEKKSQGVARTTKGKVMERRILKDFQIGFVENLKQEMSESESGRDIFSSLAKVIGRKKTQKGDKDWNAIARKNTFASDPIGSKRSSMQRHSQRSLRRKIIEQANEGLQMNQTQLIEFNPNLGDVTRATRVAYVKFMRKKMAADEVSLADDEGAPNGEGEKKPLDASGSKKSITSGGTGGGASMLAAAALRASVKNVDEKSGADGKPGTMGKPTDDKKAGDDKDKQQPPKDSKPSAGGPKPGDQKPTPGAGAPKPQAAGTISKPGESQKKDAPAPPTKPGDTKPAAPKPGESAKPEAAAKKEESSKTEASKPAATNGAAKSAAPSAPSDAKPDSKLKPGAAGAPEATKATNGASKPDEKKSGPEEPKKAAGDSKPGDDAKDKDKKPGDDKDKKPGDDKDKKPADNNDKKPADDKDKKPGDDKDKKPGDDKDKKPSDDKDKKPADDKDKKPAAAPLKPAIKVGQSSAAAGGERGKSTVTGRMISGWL

[9] = system: S2 cells (TRPL not expressed); type: cell-based, Drosophila; settings: control S2 cells
[10] = target: mammalian TRPM7 (Mus musculus, UniProt Q923J1); assay: Whole cell patch clamp of TRPM7 expressed in HEK293 cells; type: cell-based
Chain of mammalian TRPM7 (Q923J1 whole entry): as the sequence (Q923J1 whole entry) above

Structure (SMILES): CC1CCC(C(C)C)C(O)C1 (centres unmarked) [Menthol]
- IC50 [1]: 1.81 ± 0.13 mM
- Effect on TRPL-mediated current ([1]; 5mM (caffeic acid: up to 5mM)): large decrease in the TRPL-dependent current
- TRPL Activation/Inhibition [1]: Inhibition

Structure (SMILES): C=CCc1ccc(O)c(OC)c1 [Eugenol]
- Effect on TRPL-mediated current ([1]; 3mM): large decrease in the TRPL-dependent current
- TRPL Activation/Inhibition [1]: Inhibition

Structure (SMILES): NCCOB(c1ccccc1)c1ccccc1 [2-APB, 2-Aminoethoxydiphenyl borate]
- TRPL Activation/Inhibition [2]: Inhibition

Structure (SMILES): O=C/C=C/c1ccccc1 [Cinnamaldehyde]
- Effect on TRPL-mediated current ([1]; 2mM): decrease in the TRPL mediated current
- TRPL Activation/Inhibition [1]: Inhibition
- Reversibility of effect on TRPL channel [1]: reversible

- Effect on TRPL-mediated current ([1]; 10mM): activated
- TRPL Activation/Inhibition [1]: Activation
Structure (SMILES): CC12CCC(CC1=O)C2(C)C (centres unmarked) [Camphor]

Structure (SMILES): Cc1ccc(C(C)C)cc1O [Carvacrol]
- Effect on TRPM8 [3]: only a minimal effect
- Effect on presynaptic activity in control neurons [4]: did not affect
- ΔF median of boutons after application ([4]; before application 88): 87 arbitrary units
- Number of FM detectable boutons after application ([4]; before application 764): 845
- Effect on amplitude of the LIC (native TRPL) ([5]; 500μM, trp^P343 mutant photoreceptor): dramatic reduction
- Requirement of light stimulation for inhibition of native TRPL ([5]; carvacrol applied in the dark, trp^P343): does not require light stimulation
- ΔF median of boutons after application ([6]; before application 73): 75 arbitrary units (a.u)
- Number of FM detectable boutons after application ([6]; before application 578): 318
- Effect on current in mock transfected HEK293 cells [7]: no effect
- Effect on LIC of WT flies (TRP channel) [8]: inhibits
- Effect on TRPL-mediated current ([1]; 500μM): Large suppression of the current
- TRPL Activation/Inhibition [1]: Inhibition
- Reversibility of effect on TRPL channel [1]: reversibly blocked
- Effect on current when TRPL was not expressed [9]: no effect
- Effect on TRPM7 mediated current ([10]; 500μM): dramatic decrease
- Reversibility of block of TRPM7 ([10]; HEK293 cells): reversibly blocked

Structure (SMILES): CC1(C)C2CCC1(C)C(O)C2 (centres unmarked) [Borneol]
- Effect on TRPL-mediated current ([1]; 5mM (caffeic acid: up to 5mM)): activated
- TRPL Activation/Inhibition [1]: Activation
- Reversibility of effect on TRPL channel [1]: completely reversible
- Effect on current when TRPL was not expressed [9]: no effect

- TRPL Activation/Inhibition [1]: Inhibition
Structure (SMILES): Cc1ccc(C(C)C)c(O)c1 [Thymol]
- Effect on TRPL-mediated current ([1]; 1mM): large decrease in the TRPL-dependent current

Structure (SMILES): C=C(C)C1CC=C(C)C(O)C1 (mixture of isomers) [Carveol]
- IC50 [1]: 4.22 ± 0.4 mM
- Effect on TRPL-mediated current ([1]; 5mM (caffeic acid: up to 5mM)): large decrease in the TRPL-dependent current
- TRPL Activation/Inhibition [1]: Inhibition

- Effect on TRPL-mediated current ([1]; 5mM (caffeic acid: up to 5mM)): did not block
- TRPL Activation/Inhibition [1]: No effect
Structure (SMILES): O=C(O)/C=C/c1ccc(O)c(O)c1 [Caffeic acid]
